Assay results: patent US12691186B2, “B7-H3 miniproteins, conjugates, and uses thereof” (priority 2023, dated 2026)

test system: >6,500 different human proteins; test: Off-target binding, cell microarray platform (Retrogenix Assay) in HEK293 cells; conditions: biotin-labeled molecules
Description: To evaluate potential off-target binding, eight biotin-labeled molecules were tested in a cell microarray platform (Charles River Lab, Retrogenix Assay) having >6,500 different human proteins spanning diverse functions and subcellular locations.
Initially, two pools of molecules were tested. Pool #1 consisted of C298, C300, C302, C304, and pool #2 consisted of C306, C308, C310, and C312 at 2 μg/mL for each molecule. To perform this assay, HEK293 cells were plated on a dish and localized spots of cells were transiently over-expressed with a cDNA encoding for one of the >6,500 targets. Included in this library were two isoforms of CD276 (B7-H3) and B7-H3 related proteins (B7-1, B7-2, B7-H1/PD-L1, and B7-H2). The molecule pools were incubated on the fixed, over-expressing cell microarrays (n=2 per protein), and binding was visualized using Alexa Fluor 647 streptavidin fluorescence. All transfection efficiencies exceeded minimum thresholds for the microarray expression targets. Preliminary interactions identified from pooled results were re-spotted in duplicates, and each of the eight compounds were tested individually (n=2) at 2 μg/mL and/or in dose response against these targets as described above to validate the interactions.
All positive control interactions were strong and passed quality control. Specific interactions observed (median SNR≥1) confirmed on-target B7-H3 binding in two different isoforms for each of the eight test molecules. These interactions with the primary target occurred after fixation and in live cells (absence of fixation). No significant additional interactions were confirmed for any test molecules outside of B7-H3, indicating high specificity for the primary target (data not shown).

Row | Compound | background binding to untransfected HEK293 cells
1 | CC[C@H](C)[C@@H]1NC(=O)[C@H](Cc2ccccc2)NC(=O)[C@H](C)NC(=O)[C@H](CCCCN(C)C)NC(=O)[C@H]([C@@H](C)CC)NC(=O)[C@H](CCC(N)=O)NC(=O)[C@H](C)NC(=O)[C@H](Cc2ccc(O)cc2)NC(=O)[C@H]([C@@H](C)O)NC(=O)[C@H](CC(C)C)NC(=O)[C@@H]2CSSC[C@@H](C(=O)N[C@@H](CO)C(N)=O)NC(=O)[C@H](CC(C)C)NC(=O)[C@H](CCC(=O)O)NC(=O)[C@H](CCCCN)NC(=O)[C@H](C)NC(=O)[C@H](CCC(=O)O)NC(=O)[C@H](CO)NC(=O)[C@H](CC(C)C)NC(=O)[C@H]([C@@H](C)CC)NC(=O)[C@H](CCC(=O)O)NC(=O)[C@H](C)NC(=O)[C@H](CO)NC(=O)[C@H](CCC(N)=O)NC(=O)[C@H](CSSC[C@H](NC(=O)CCOCCOCCOCCOCCNC(=O)CCCC[C@@H]3SC[C@@H]4NC(=O)N[C@@H]43)C(=O)N[C@@H](C)C(=O)N[C@@H](CCCNC(=N)N)C(=O)N[C@@H](CCC(=O)O)C(=O)N[C@@H](CCCCN)C(=O)N[C@@H]([C@@H](C)CC)C(=O)N[C@@H](C)C(=O)N[C@@H](C)C(=O)N[C@@H](CC(C)C)C(=O)N[C@@H](CO)C(=O)N[C@@H](CCC(=O)O)C(=O)N[C@@H]([C@@H](C)CC)C(=O)N[C@@H]([C@@H](C)CC)C(=O)N[C@@H](Cc3c[nH]c4ccccc34)C(=O)N[C@@H](CC(C)C)C(=O)N3CCC[C@H]3C(=O)N2)NC(=O)[C@@H]2CCCN2C(=O)[C@H](CC(=O)O)NC(=O)[C@H](CC(=O)O)NC(=O)[C@H](CC(N)=O)NC(=O)[C@H](CC(C)C)NC(=O)[C@H](C)NC(=O)[C@H](C)NC1=O [Compound C300] | low-background binding
2 | CC[C@H](C)[C@@H]1NC(=O)[C@H](Cc2ccccc2)NC(=O)[C@H](C)NC(=O)[C@H](CCCCNC)NC(=O)[C@H]([C@@H](C)CC)NC(=O)[C@H](CCC(N)=O)NC(=O)[C@H](C)NC(=O)[C@H](Cc2ccc(O)cc2)NC(=O)[C@H]([C@@H](C)O)NC(=O)[C@H](CC(C)C)NC(=O)[C@@H]2CSSC[C@@H](C(=O)N[C@@H](CO)C(N)=O)NC(=O)[C@H](CC(C)C)NC(=O)[C@H](CCC(=O)O)NC(=O)[C@H](CCCCNC)NC(=O)[C@H](C)NC(=O)[C@H](CCC(=O)O)NC(=O)[C@H](CO)NC(=O)[C@H](CC(C)C)NC(=O)[C@H]([C@@H](C)CC)NC(=O)[C@H](CC(N)=O)NC(=O)[C@H](C)NC(=O)[C@H](CO)NC(=O)[C@H](CCC(N)=O)NC(=O)[C@H](CSSC[C@H](NC(=O)CCOCCOCCOCCOCCNC(=O)CCCC[C@@H]3SC[C@@H]4NC(=O)N[C@@H]43)C(=O)N[C@@H](C)C(=O)N[C@@H](CCCNC(=N)N)C(=O)N[C@@H](CCC(=O)O)C(=O)N[C@@H](CCCCN)C(=O)N[C@@H]([C@@H](C)CC)C(=O)N[C@@H](C)C(=O)N[C@@H](C)C(=O)N[C@@H](CC(C)C)C(=O)N[C@@H](CO)C(=O)N[C@@H](CCC(=O)O)C(=O)N[C@@H]([C@@H](C)CC)C(=O)N[C@@H]([C@@H](C)CC)C(=O)N[C@@H](Cc3c[nH]c4ccccc34)C(=O)N[C@@H](CC(C)C)C(=O)N3CCC[C@H]3C(=O)N2)NC(=O)[C@@H]2CCCN2C(=O)[C@H](CC(=O)O)NC(=O)[C@H](CC(=O)O)NC(=O)[C@H](CC(N)=O)NC(=O)[C@H](CC(C)C)NC(=O)[C@H](C)NC(=O)[C@H](C)NC1=O [Compound C302] | low-background binding
3 | CC[C@H](C)[C@@H]1NC(=O)[C@H](Cc2ccccc2)NC(=O)[C@H](C)NC(=O)[C@H](CCCCNC)NC(=O)[C@H]([C@@H](C)CC)NC(=O)[C@H](CCC(N)=O)NC(=O)[C@H](C)NC(=O)[C@H](Cc2ccc(O)cc2)NC(=O)[C@H]([C@@H](C)O)NC(=O)[C@H](CC(C)C)NC(=O)[C@@H]2CSSC[C@@H](C(=O)N[C@@H](CO)C(N)=O)NC(=O)[C@H](CC(C)C)NC(=O)[C@H](CCC(=O)O)NC(=O)[C@H](CCCCNC)NC(=O)[C@H](C)NC(=O)[C@H](CCC(=O)O)NC(=O)[C@H](CO)NC(=O)[C@H](CC(C)C)NC(=O)[C@H]([C@@H](C)CC)NC(=O)[C@H](CCC(=O)O)NC(=O)[C@H](CO)NC(=O)[C@H](CO)NC(=O)[C@H](CCC(N)=O)NC(=O)[C@H](CSSC[C@H](NC(=O)CCOCCOCCOCCOCCNC(=O)CCCC[C@@H]3SC[C@@H]4NC(=O)N[C@@H]43)C(=O)N[C@@H](C)C(=O)N[C@@H](CCCC[N+](C)(C)C)C(=O)N[C@@H](CCC(=O)O)C(=O)N[C@@H](CCCCN)C(=O)N[C@@H]([C@@H](C)CC)C(=O)N[C@@H](C)C(=O)N[C@@H](C)C(=O)N[C@@H](CC(C)C)C(=O)N[C@@H](CO)C(=O)N[C@@H](CCC(=O)O)C(=O)N[C@@H]([C@@H](C)CC)C(=O)N[C@@H]([C@@H](C)CC)C(=O)N[C@@H](Cc3c[nH]c4ccccc34)C(=O)N[C@@H](CC(C)C)C(=O)N3CCC[C@H]3C(=O)N2)NC(=O)[C@@H]2CCCN2C(=O)[C@H](CC(=O)O)NC(=O)[C@H](CC(=O)O)NC(=O)[C@H](CC(N)=O)NC(=O)[C@H](CC(C)C)NC(=O)[C@H](C)NC(=O)[C@H](C)NC1=O [Compound C304] | low-background binding
4 | CC[C@H](C)[C@@H]1NC(=O)[C@H](Cc2ccccc2)NC(=O)[C@H](C)NC(=O)[C@H](CCCCNC)NC(=O)[C@H]([C@@H](C)CC)NC(=O)[C@H](CCC(N)=O)NC(=O)[C@H](C)NC(=O)[C@H](Cc2ccc(O)cc2)NC(=O)[C@H](CC(N)=O)NC(=O)[C@H](CC(C)C)NC(=O)[C@@H]2CSSC[C@@H](C(=O)N[C@@H](CO)C(N)=O)NC(=O)[C@H](CC(C)C)NC(=O)[C@H](CCC(=O)O)NC(=O)[C@H](CCCCNC)NC(=O)[C@H](C)NC(=O)[C@H](CCC(=O)O)NC(=O)[C@H](CO)NC(=O)[C@H](CC(C)C)NC(=O)[C@H]([C@@H](C)CC)NC(=O)[C@H](CCC(=O)O)NC(=O)[C@H](CO)NC(=O)[C@H](CO)NC(=O)[C@H](CCC(N)=O)NC(=O)[C@H](CSSC[C@H](NC(=O)CCOCCOCCOCCOCCNC(=O)CCCC[C@@H]3SC[C@@H]4NC(=O)N[C@@H]43)C(=O)N[C@@H](C)C(=O)N[C@@H](CCCC[N+](C)(C)C)C(=O)N[C@@H](CCC(=O)O)C(=O)N[C@@H](CCCCN)C(=O)N[C@@H]([C@@H](C)CC)C(=O)N[C@@H](C)C(=O)N[C@@H](C)C(=O)N[C@@H](CC(C)C)C(=O)N[C@@H](CO)C(=O)N[C@@H](CCC(=O)O)C(=O)N[C@@H]([C@@H](C)CC)C(=O)N[C@@H]([C@@H](C)CC)C(=O)N[C@@H](Cc3c[nH]c4ccccc34)C(=O)N[C@@H](CC(C)C)C(=O)N3CCC[C@H]3C(=O)N2)NC(=O)[C@@H]2CCCN2C(=O)[C@H](CC(=O)O)NC(=O)[C@H](CC(=O)O)NC(=O)[C@H](CC(N)=O)NC(=O)[C@H](CC(C)C)NC(=O)[C@H](C)NC(=O)[C@H](C)NC1=O [Compound C310] | low-background binding
